Laboratory results as given in patent US20120010237A1, “COMPOUNDS HAVING ANTIPARASITIC OR ANTI-INFECTIOUS ACTIVITY” (The Government of the United States of America dba The …, priority 2008, published 2012).
Where “and” joins values, the source holds several entries; their conditions need not be identical. Equal values may be shown once. Read-outs that look alike come from different tables or passages of the source.

How the values were obtained:
[1] = test system: P. falciparum (D6, Dd2, Tm90.C2B); experiment: In vitro activity and pharmaco-resistance pattern against a panel of P. falciparum parasites; format: cell-based, Plasmodium falciparum; conditions: for reduction of potency relative to ELQ-121: in vitro, relative to the 5,7-difluoro parent ELQ-121; for cross-resistance / sensitivity pattern across strains: atovaquone-resistant Tm90.C2B compared with D6 and Dd2, in words; for antiplasmodial activity in vitro (in words): structure-activity comparison with endochin
Procedure: (§1) Plasmodium falciparum strains D6 and Dd2 were obtained from the MR4 (ATCC, Manassas, Va., USA). D6 is sensitive to chloroquine but mildly resistant to mefloquine while Dd2 is resistant to multiple quinoline and antifolate antimalarial agents. Tm90.C2B is resistant to atovaquone, chloroquine, mefloquine, and quinine.
(§2) Three different laboratory strains of P. falciparum were cultured in human erythrocytes by standard methods under a low oxygen atmosphere (5% O2, 5% CO2, 90% N2) in an environmental chamber as described in Trager, W., and J. B. Jensen. 1976. Human malaria parasites in continuous culture. Science 193:673-5. The culture medium was RPMI-1640, supplemented with 25 mM HEPES buffer, 25 mg/L gentamicin sulfate, 45 mg/L hypoxanthine, 10 mM glucose, 2 mM glutamine, and 0.5% Albumax II (complete medium). The parasites were maintained in fresh human erythrocytes suspended at a 2% hematocrit in complete medium at 37° C. Stock cultures were sub-passaged every 3 to 4 days by transfer of infected red cells to a flask containing complete medium and uninfected erythrocytes.
(§3) In vitro antimalarial activity of the compounds was assessed by the SYBR Green I fluorescence-based method (the “MSF assay”) described previously by Smilkstein, M., N. Sriwilaijaroen, J. X. Kelly, P. Wilairat, and M. Riscoe. 2004. Simple and inexpensive fluorescence-based technique for high-throughput antimalarial drug screening. Antimicrob Agents Chemother 48:1803-6 with minor modifications (Winter, R. W., J. X. Kelly, M. J. Smilkstein, R. Dodean, G. C. Bagby, R. K. Rathbun, J. I. Levin, D. Hinrichs, and M. K. Riscoe. 2006. Evaluation and lead optimization of anti-malarial acridones. Exp Parasitol 114:47-56). Experiments were set up in triplicate in 96 well plates (Costar, Corning) with two-fold dilutions of each drug across the plate in a total volume of 100 microliters and at a final red blood cell concentration of 2% (v/v). Stock solutions of each drug were prepared by dissolving in ethanol or dimethylsulfoxide (as appropriate) at 10 mM. […] Automated pipeting and dilution was carried out with the aid of a programmable Precision 2000 robotic station (BioTek, Winooski, Vt.). An initial parasitemia of 0.2% was attained by addition of normal uninfected red cells to a stock culture of asynchronous parasite infected red cells (PRBC). The plates were incubated for 72 hrs at 37° C. in an atmosphere of 5% CO2, 5% O2, and 90% N2. After this period the SYBR Green I dye-detergent mixture (100 μl) was added and the plates were incubated at room temperature for an hour in the dark and then placed in a 96-well fluorescence plate reader (Spectramax Gemini-EM, […]) for analysis with excitation and emission wavelength bands centered at 497 and 520 nm, respectively.
(§4) The compounds were screened for antiplasmodial activity in vitro against chloroquine (CQ) sensitive (D6), multidrug resistant (Dd2), and chloroquine/quinine/atovaquone (ATV)-resistant (Tm90.C2B) strains of P. falciparum.

[2] = test system: Toxoplasma gondii strain 2F; experiment: Anti-T. gondii assay with beta-galactosidase expressing 2F strain in HFF cells; format: cell-based; conditions: compared with the correlation observed for Plasmodium falciparum
Procedure: Determination of anti-T. gondii IC50 and TD50 values—use of the 2F strain. This method, which employs tachyzoites of Toxoplasma gondii strain 2F that constitutively expresses cytoplasmic Beta-galactosidase, has been described recently by Jones-Brando et al. (Jones-Brando, L., D'angelo, J., Posner, G H, and Yolken, R., 2006, In vitro inhibition of Toxoplasma gondii by four new derivatives of artemisinin, Antimicrobial Agents and Chemotherapy 50: 4206-8). […] Briefly, each drug was dissolved in ethanol or DMSO, as appropriate, at a concentration of 10 mM and diluted with complete Dulbecco's modified Eagle's medium (DMEM) to 1,000 μM. […] After this period, Triton X-100 is added to inactivate the parasite and the color reactions in the wells were read in a microplate reader. For anti-T. gondii IC50 determinations, the plates are read at 570-650 nm. The amount of absorbance (570-650 nm) in wells containing drug, parasites, and CPRG reagent is compared to that in control wells containing T. gondii, HFF cells and CPRG. The amount of absorbance in these wells is directly proportional to the amount of beta-galactosidase activity and thus correlative to the number of viable tachyzoites in each well. Thus, a decrease in the amount of absorbance indicates an inhibition of parasite growth. […]

[3] = test system: Plasmodium falciparum strain D6; experiment: SYBR Green I fluorescence-based MSF assay, in vitro antimalarial activity, strain D6; format: cell-based; conditions: chloroquine sensitive strain D6, 72 hrs incubation
Procedure: as §1, §2, §3, §4

P. yoelii = format: in vivo
Procedure: The activity of the ester, ELQ-125, against the blood stages was assessed using a modified Thompson procedure (Arba Ager, 1984). Rodent malaria models, vol. 68/1. Springer-Verlag, Berlin. Mice (female, CFI) were infected intravenously with 1-5 million P. yoelii parasitized erythrocytes from a donor animal. Drug administration was initiated once the parasitemia had risen to between 3 to 5% as determined microscopically by examination of Giemsa-stained blood smears. The test compound, ELQ-125, was taken into NeoBee® M-5 (Stephan Company, Northfield, Ill., USA) and used without dilution. The drug was administered by gavage once daily for 3 days. On the 4th day blood films were prepared and the extent of parasitemia was determined microscopically. ED50 and ED90 values (mg/kg/day) were derived from the dose required to reduce the parasite burden by 50% and 90%, respectively, relative to drug-free controls. The procedures involved, together with all matters relating to the care and housing of the animals used in this study, were approved by the Portland VA Medical Center Institutional Animal Care and Use Committee (approval #0807).
Prodrugs containing a water-soluble pro-moiety that could be metabolically released after drug administration were designed and synthesized. […] In each case, ELQ-125, a clear and colorless syrup, was administered orally with NeoBee M-5 (vol.=100 μl).

[4] = test system: Plasmodium falciparum strain Tm90.C2B; format: cell-based
Procedure: as §1, §2
In vitro antimalarial activity of the compounds was assessed by the SYBR Green I fluorescence-based method (the “MSF assay”) described previously by Smilkstein, M., N. Sriwilaijaroen, J. X. Kelly, P. Wilairat, and M. Riscoe. 2004. Simple and inexpensive fluorescence-based technique for high-throughput antimalarial drug screening. Antimicrob Agents Chemother 48:1803-6 with minor modifications (Winter, R. W., J. X. Kelly, M. J. Smilkstein, R. Dodean, G. C. Bagby, R. K. Rathbun, J. I. Levin, D. Hinrichs, and M. K. Riscoe. 2006. Evaluation and lead optimization of anti-malarial acridones. Exp Parasitol 114:47-56). […] After this period the SYBR Green I dye-detergent mixture (100 μl) was added and the plates were incubated at room temperature for an hour in the dark and then placed in a 96-well fluorescence plate reader (Spectramax Gemini-EM, […]) for analysis with excitation and emission wavelength bands centered at 497 and 520 nm, respectively. […]

malaria infections = conditions: mice to non-human primates (Rhesus monkeys); cited from earlier work
Haemoproteus = conditions: male gametocytes undergoing exflagellation, finches infected with Haemoproteus; cited from earlier work
P. lophurae = P. lophurae in the turkey; cited from earlier work
P. cathemerium = conditions: P. cathemerium/canary; cited from earlier work
P. gallinaceum = P. gallinaceum in the chick; cited from earlier work
[5] = test system: Plasmodium falciparum strain Dd2; experiment: SYBR Green I fluorescence-based MSF assay, in vitro antimalarial activity, strain Dd2; format: cell-based; conditions: multidrug resistant strain Dd2, 72 hrs incubation
Procedure: as §1
Three different laboratory strains of P. falciparum were cultured in human erythrocytes by standard methods under a low oxygen atmosphere (5% O2, 5% CO2, 90% N2) in an environmental chamber as described in Trager, W., and J. B. Jensen. 1976. Human malaria parasites in continuous culture. Science 193:673-5. […]
In vitro antimalarial activity of the compounds was assessed by the SYBR Green I fluorescence-based method (the “MSF assay”) described previously by Smilkstein, M., N. Sriwilaijaroen, J. X. Kelly, P. Wilairat, and M. Riscoe. […] Simple and inexpensive fluorescence-based technique for high-throughput antimalarial drug screening. […] After this period the SYBR Green I dye-detergent mixture (100 μl) was added and the plates were incubated at room temperature for an hour in the dark and then placed in a 96-well fluorescence plate reader (Spectramax Gemini-EM, […]) for analysis with excitation and emission wavelength bands centered at 497 and 520 nm, respectively. […]

[6] = chloroquine/quinine/atovaquone-resistant Tm90.C2B clinical isolate, 72 hrs incubation

CCCCCCCc1c(C)n(C)c2cc(F)cc(F)c2c1=O [ELQ-134]
reduction of potency relative to ELQ-121 [1]: about 300 fold
growth inhibitory activity against Toxoplasma gondii (in words) [2]: enhanced growth inhibitory activity

CCCCCCCc1c(C)[nH]c2c(F)cc(F)cc2c1=O [6,8-difluoro positional isomer]
reduction of potency relative to ELQ-121 [1]: ≈ 2,000 fold

CCCCCCCc1c(O)[nH]c2cc(OC)ccc2c1=O [ELQ-106]
IC50 [3]: > 2500 nM

CCCCCCCc1c(C)nc2cc(F)cc(F)c2c1OC(=O)OCCOCCOCCOCCOC [ELQ-125]
parasitemia suppressed relative to controls (P. yoelii; 25 mg/kg/day oral, 3 days, assessed on the day following the last dose): > 99%
parasite status during follow-up (P. yoelii; 25 mg/kg/day oral, 3 days, until euthanized 10 days later): remained parasite-free
clearance of parasites from the bloodstream (P. yoelii; 50 mg/kg/day oral in NeoBee M-5, once daily for 3 days, mice): completely cleared parasites from the bloodstream
clearance of parasites from the bloodstream (P. yoelii; 100 mg/kg/day oral in NeoBee M-5, once daily for 3 days, mice): completely cleared parasites from the bloodstream
ED90 (P. yoelii; oral in 100 μl NeoBee M5, once daily for 3 days, mice): 22 mg/kg/day
in vivo efficacy of the prodrug (in words) (P. yoelii; prodrug ester compared with ELQ-121): greatly enhanced in vivo efficacy

CCCCCCCc1c(C)nc2cc(F)cc(F)c2c1Cl [ELQ-119]
reduction of potency relative to ELQ-121 [1]: > 1,000 fold

CCCCCCCc1c(C)[nH]c2cc(OC)ccc2c1=O [ELQ-100, endochin]
IC50 [3]: 3 to 4 nM and 3.8 nM
IC50 [4, 6]: 11.4 nM
cure of malaria infections in mammalian species (malaria infections): failed to cure malaria infections
gametocidal action (Haemoproteus): exerted gametocidal action
efficacy in treatment and prophylaxis (P. lophurae): demonstrated efficacy in treatment and prophylaxis
cross-resistance / sensitivity pattern across strains [1]: a modest level of ATV cross-resistance
efficacy in bird model (P. cathemerium): efficacy in treatment and prevention of malaria
efficacy in treatment and prophylaxis (P. gallinaceum): demonstrated efficacy in treatment and prophylaxis

CCCCCCCc1c(C)[nH]c2cc(Cl)ccc2c1=O [ELQ-109]
IC50 [3]: 5.8 nM
antiplasmodial activity in vitro (in words) [1]: only a modest reduction in in vitro potency

CCCCCCCc1c(C)[nH]c2cc(F)ccc2c1=O [ELQ-120]
antiplasmodial activity in vitro (in words) [1]: only a modest reduction in in vitro potency

CCCCCCCc1c(C)[nH]c2ccccc2c1=O [ELQ-127]
cross-resistance / sensitivity pattern across strains [1]: equally active against all three parasite strains
in vitro activity weakened relative to endochin ([1]; relative to endochin): roughly 5 fold

CCCCCCCc1c(C)[nH]c2cc(F)cc(F)c2c1=O [ELQ-121, 2-Methyl-3-(n-heptyl)-5.7-difluorquinolone]
IC50 [3]: ~0.05 nM
IC50 against Tm90.C2B relative to D6 and Dd2 ([4]; times higher than IC50 against D6 and Dd2): about 300 times
IC50 [5]: ~0.05 nM

COc1ccc2c(=O)c(CCCCCCCCCCC(F)(F)F)c(C)[nH]c2c1 [ELQ-103]
IC50 vs. D6 [3]: low nanomolar range
IC50 vs. Tm90.C2B [4, 6]: low nanomolar range
IC50 vs. Dd2 [5]: low nanomolar range

CCCCCCCc1c(C)[nH]c2cc(Cl)cc(Cl)c2c1=O [ELQ-124]
antiplasmodial activity in vitro (in words) [1]: weak in vitro activity

CCCCCCCc1c(C)[nH]c2ccc(Cl)cc2c1=O [ELQ-130]
IC50 [3]: 22.2 nM
cross-resistance / sensitivity pattern across strains [1]: equal sensitivity is observed against the atovaquone-resistant Tm90.C2B clinical isolate

CCCCCCCc1c(C)[nH]c2cc(O)ccc2c1=O [ELQ-117]
antiplasmodial activity in vitro (in words) [1]: greatly diminishes antiplasmodial activity
